Data as given in ChEMBL document CHEMBL1122763, “Synthesis and biological activity of certain 3,4-disubstituted pyrazolo[3,4-d]pyrimidine nucleosides” (J Med Chem, 1984).
Activity calls are given as the source filed them. The rule behind the calls is not given here.

Assays:
Vero [1] = assay: Virus rating was determined by comparing cytopathic effect against vero cells after infection with Parainfluenza type 3 (para 3); assay type: functional, Chlorocebus sabaeus
L1210 [2] = assay: Percent inhibition at a concentration 10 E -4 against L1210 leukemia cells; Inactive; assay type: functional, cell-based; settings: Mus musculus
Vero [3] = assay: Virus rating was determined by comparing cytopathic effect against vero cells after infection with Herpes simplex virus-1; assay type: functional, Chlorocebus sabaeus
Vero [4] = assay: Virus rating was determined by comparing cytopathic effect against vero cells after infection with Vaccinia virus; assay type: functional, Chlorocebus sabaeus
[5] = Toxic level was determined; assay type: ADME
P388 [6] = assay: Percent inhibition at a concentration 10 E -4 against P388 lymphoid neoplasm cells; assay type: functional, Mus musculus
[7] = (§1) Toxic level was determined; Non toxic; assay type: functional
Vero [8] = assay: Virus rating was determined by comparing cytopathic effect against vero cells after infection with Vesicular stomatitis virus; assay type: functional, Chlorocebus sabaeus
P388 [9] = assay: Inhibition at a concentration 10 E -4 against P388 lymphoid neoplasm cells; Inactive; assay type: functional, cell-based; settings: Mus musculus
P388 [10] = assay: Compound was evaluated for inhibition against P388 lymphoid neoplasm cells; assay type: functional; settings: Mus musculus, read-out: ID50 (the source's name)
L1210 [11] = assay: Compound was evaluated for inhibition against L1210 leukemia cells; assay type: functional; settings: Mus musculus, read-out: ID50 (the source's name)
[12] = system: Lewis lung carcinoma cell line; assay: 50% inhibition of the tumor cell growth as compared to the untreated controls against Lewis lung cells; assay type: functional; settings: Mus musculus, read-out: ID50 (the source's name)
B16 [13] = assay: 50% inhibition of the tumor cell growth as compared to the untreated controls against B16 melanoma cells; assay type: functional; settings: Mus musculus, read-out: ID50 (the source's name)
Leishmania tropica [14] = assay: Concentration in the culture media that produced 50% inhibition of the leishmania tropica growth; assay type: functional; settings: for EC50: read-out: ED50 (the source's name)
P388 [15] = assay: Compound was evaluated for inhibition of P388 lymphoid neoplasm cells; assay type: functional; settings: Mus musculus, read-out: ID50 (the source's name)
L1210 [16] = assay: Compound was evaluated for inhibition of L1210 leukemia cells; assay type: functional; settings: Mus musculus, read-out: ID50 (the source's name)
[17] = as §1; assay type: ADME
B16 [18] = assay: 50% inhibition of the tumor cell growth as compared to the untreated controls against B16 melanoma cells; Inactive; assay type: functional, cell-based; settings: Mus musculus
[19] = system: Lewis lung carcinoma cell line; assay: 50% inhibition of the tumor cell growth as compared to the untreated controls against Lewis lung cells; Inactive; assay type: functional, cell-based; settings: Mus musculus
P388 [20] = assay: Percent inhibition at a concentration 10 E -4 against P388 lymphoid neoplasm cells; Inactive; assay type: functional, cell-based; settings: Mus musculus
B16 [21] = assay: Percent inhibition of the tumor cell growth as compared to the untreated controls against B16 melanoma cells at a concentration of 10 E-4; assay type: functional, Mus musculus
L1210 [22] = assay: Percent inhibition at a concentration 10 E -4 against L1210 leukemia cells; assay type: functional, Mus musculus
Leishmania tropica [23] = assay: Concentration in the culture media that produced 50% inhibition of the leishmania tropica growth; Range is 76-190; assay type: functional; settings: read-out: ED50 (the source's name)

| Structure (SMILES) | Virus rating (Vero [1]) | Virus rating (Vero [3]) | Virus rating (Vero [4]) | Toxic level [5] [mM] | Virus rating (Vero [8]) | IC50 [12] [nM] | IC50 (P388 [15]) [nM] | IC50 (L1210 [16]) [nM] | other results |
| --- | --- | --- | --- | --- | --- | --- | --- | --- | --- |
| CSc1nn(C2O[C@H](CO)[C@@H](O)[C@H]2O)c2nc[nH]c(=O)c12 (some centres not stated) | 0.11 | 0.16 | 0 | 5 | – | – | – | – | inhibition (L1210 [2]): inactive; Inhibition (P388 [6]): 16% |
| Nc1ncnc2c1c(N)nn2C1O[C@H](CO)[C@@H](O)[C@H]1O (some centres not stated) | 0.45 | 1.3 | 0.4 | – | 0.25 | – | – | – | Toxic level [7]: 5 mM; ID50 (P388 [9]): inactive |
| N#Cc1nn(C2O[C@H](CO)[C@@H](O)[C@H]2O)c2nc[nH]c(=O)c12 (some centres not stated) | 0.32 | 0.25 | 0.55 | – | 0 | 250000 | – | – | Toxic level [7]: 5 mM; IC50 (P388 [10]): 460 nM; IC50 (L1210 [11]): 200 nM; IC50 (B16 [13]): 7000 nM |
| OC[C@H]1OC(n2ncc3c(S)ncnc32)[C@H](O)[C@@H]1O (some centres not stated) | – | – | – | – | – | – | – | – | EC50 (Leishmania tropica [14]): 72000 nM |
| O=Nn1c(=O)c2c(O)ncnc2n1C1O[C@H](CO)[C@@H](O)[C@H]1O (some centres not stated) | 0.45 | 0.35 | 0.8 | 5 | 0 | 2500 | 160 | 430 | EC50 (Leishmania tropica [14]): > 160000 nM; IC50 (B16 [13]): 80000 nM |
| CNc1nn(C2O[C@H](CO)[C@@H](O)[C@H]2O)c2nc[nH]c(=O)c12 (some centres not stated) | 0.1 | 0 | 0.2 | 1.6 | – | – | – | – | inhibition (L1210 [2]): inactive; Inhibition (P388 [6]): 20% |
| NC(=S)c1nn(C2O[C@H](CO)[C@@H](O)[C@H]2O)c2nc[nH]c(=O)c12 (some centres not stated) | 1.15 | 0 | 0.4 | 5 | – | 2400 | 600 | 360 | IC50 (B16 [13]): 16000 nM |
| N#Cc1nn(C2O[C@H](CO)[C@@H](O)[C@H]2O)c2ncnc(N)c12 (some centres not stated) | – | – | – | – | – | – | – | 79 | – |
| N#Cc1nn(C2O[C@H](CO)[C@@H](O)[C@H]2O)c2ncnc(S)c12 (some centres not stated) | 1.1 | 1 | 1.24 | – | 0.56 | – | 320 | 140 | Toxic level [17]: 5 mM |
| Nc1nn(C2O[C@H](CO)[C@@H](O)[C@H]2O)c2nc[nH]c(=O)c12 (some centres not stated) | 0.3 | 0.15 | 0.45 | 5 | 0 | – | – | – | EC50 (Leishmania tropica [14]): > 177000 nM; inhibition (L1210 [2]): inactive; ID50 (B16 [18]): inactive; ID50 [19]: inactive; inhibition (P388 [20]): inactive |
| NC(=O)c1nn(C2O[C@H](CO)[C@@H](O)[C@H]2O)c2nc[nH]c(=O)c12 (some centres not stated) | 0.3 | 0 | 0.4 | 5 | 0 | 20000 | 18000 | 13000 | Inhibition (B16 [21]): 37% |
| Cl.N=C(N)c1nn(C2O[C@H](CO)[C@H](O)[C@@H]2O)c2ncnc(O)c12 (some centres not stated) | 1.1 | 0.2 | 0.31 | 5 | 0 | 6400 | 370 | 230 | IC50 (B16 [13]): 3800 nM |
| O=c1[nH]cnc2c1c(Br)nn2C1O[C@H](CO)[C@@H](O)[C@H]1O (some centres not stated) | 0.03 | 0.2 | – | 5 | – | – | – | – | IC50 (Leishmania tropica [14]; read-out: ID50 (the source's name)): > 15000 nM; Inhibition (L1210 [22]): 25%; Inhibition (P388 [6]): 28% |
| N=C(NO)c1nn(C2O[C@H](CO)[C@@H](O)[C@H]2O)c2nc[nH]c(=O)c12 (some centres not stated) | 0.2 | 0.1 | 0.12 | – | 0.35 | – | – | – | Toxic level [7]: 5 mM; ID50 (L1210 [2]): inactive; ID50 (P388 [20]): inactive |
| Nc1ncnc2c1c(Br)nn2C1O[C@H](CO)[C@@H](O)[C@H]1O (some centres not stated) | 0.2 | 0.4 | 0.1 | 0.5 | 0 | – | – | – | Inhibition (L1210 [22]): 28%; inhibition (P388 [20]): inactive |
| O=c1[nH]cnc2c1cnn2[C@@H]1O[C@H](CO)[C@@H](O)[C@H]1O | 0.2 | 0 | – | – | 0.3 | – | – | – | Toxic level [7]: 5 mM; EC50 (Leishmania tropica [23]): 76000 nM |
